In patent US12173018B2, “Penicillin-binding protein inhibitors” (priority 2018, dated 2024) one finds MIC and EC50 data, which are given here for eight compounds.

The subject of one assay is P. aeruginosa ATCC 27853. The assay is described as follows: Broth microdilution MIC, P. aeruginosa ATCC 27853. The assay is classed as cell-based. The note with it: Pseudomonas aeruginosa. The protocol: To determine the ability of test compounds to potentiate the inhibition of the growth of bacterial strains, classic cell based broth microdilution minimum inhibitory concentration (MIC) assays were employed. MIC assays are performed according to CLSI methods except where otherwise noted (CLSI, 2011 and CLSI, 2009). The reference type strain E. coli ATCC 25922, the wild-type parent strain E. coli AG100, the hyper-permeable E. coli 901C and E. coli D22 and the E. coli AG100A strain lacking the acrAB efflux pump encoding genes were used to determine the ability of the PBP inhibitors to penetrate the outer membrane of gram-negative bacteria and inhibit bacterial growth. […] The P. aeruginosa PAO1, P. aeruginosa ATCC 27853 and A. baumannii ATCC 19606, along with the hyper-permeable P. aeruginosa ATCC 35151 and an engineered efflux pump-compromised strain of P. aeruginosa (ΔmexAB-oprM) were used to determine the ability of PBP inhibitors to penetrate the outer membrane of P. aeruginosa and A. baumannii and assess antibacterial activity against these important gram-negative organisms.
Briefly, cryo-preserved bacterial cultures of challenge strains are streaked for isolation on appropriate agar medium, in this case Mueller Hinton II agar. Following incubation to allow growth of the colonies, plates are sealed with parafilm and stored refrigerated for up to two weeks. For preparation of assay inoculum and to ensure low variability, at least 5 colonies are picked from the agar plates with an inoculating loop and aseptically transferred to a culture tube containing 3 mL of Mueller-Hinton Broth (supplemented with divalent cations to required levels based on Manufacturers' certification). The broth culture is grown for 3-5 hours at 37° C. with shaking at 200 rpm. Meanwhile, 2-fold serial dilutions of test compounds are conducted in a 96 well plate with a final volume of 75 μL per well at 2-fold the final desired concentration. After the dilution plates are set up the growing cultures are then diluted in a cuvette containing MH II broth and the optical density is measured at 600 nm. The Inoculum is diluted such that 75 μL of this culture in Mueller-Hinton Broth results in a starting bacterial concentration of 5×10^5 CFU/mL when added to the dilution plates. The plates are incubated for 16-20 hours at 37° C. The MIC values are read visually as the lowest concentration well with no bacterial growth.
In general terms: Dilution methods test growth across graded concentrations, often in twofold steps.

A further assay addresses E. coli PBP2 (Escherichia coli (strain K12), UniProt P0AD65). As to the kind of experiment: E. coli PBP2 Bocillin-FL fluorescence polarization competition binding assay. The settings on record: fluorescence polarization competition binding with Bocillin-FL; read-out: E. coli K12 PBP2 Potency (EC50). A digest of the protocol:
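Purified PBP2 at 1.5 μM final was preincubated with boronic acid inhibitor, then Bocillin-FL added to 0.1 μM final in Hepes pH 8.0/NaCl/glycerol buffer. Polarization was monitored 90 min; the concentration halving probe binding is reported as EC50.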

Assay [1] deals with engineered strain of Escherichia coli harboring CTX-M15. As to the kind of experiment: microbe, parasite or virus in culture. The note with it: Escherichia coli, read-out: Microbiological Activity (MIC in mg/L), E. coli DH5α/pLBII-CTX-M15, engineered strain producing CTX-M15. The assay is classed as cell-based.
The mark [2] stands for this setting: ATCC27853, P. aeruginosa ATCC 27853, broth microdilution, read-out: MIC P. aeruginosa ATCC 27853.

SMILES strings stand for the structures. ≈ marks a conversion by molar mass, not a printed value. Where two headings read alike, the source gives them in different places.

Chain of E. coli PBP2 (P0AD65 whole entry): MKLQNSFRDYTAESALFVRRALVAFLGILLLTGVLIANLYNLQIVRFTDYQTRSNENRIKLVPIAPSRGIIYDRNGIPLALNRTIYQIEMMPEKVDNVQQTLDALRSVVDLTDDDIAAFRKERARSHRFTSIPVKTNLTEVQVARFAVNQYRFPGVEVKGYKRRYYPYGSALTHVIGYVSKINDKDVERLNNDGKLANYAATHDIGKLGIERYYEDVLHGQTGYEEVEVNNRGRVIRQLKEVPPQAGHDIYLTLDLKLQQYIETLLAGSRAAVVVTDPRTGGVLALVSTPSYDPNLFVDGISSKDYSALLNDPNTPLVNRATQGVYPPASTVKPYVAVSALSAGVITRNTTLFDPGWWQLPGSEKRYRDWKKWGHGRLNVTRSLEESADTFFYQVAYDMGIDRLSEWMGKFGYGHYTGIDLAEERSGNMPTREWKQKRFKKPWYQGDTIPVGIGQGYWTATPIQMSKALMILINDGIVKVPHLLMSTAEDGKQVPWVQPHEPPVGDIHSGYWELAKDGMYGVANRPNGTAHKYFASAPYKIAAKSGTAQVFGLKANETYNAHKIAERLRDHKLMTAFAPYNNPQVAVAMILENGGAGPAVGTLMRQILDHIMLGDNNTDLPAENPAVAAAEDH

For the compound `CCN1C[C@H](CCN)N(C(=O)NC(C(=O)N[C@H]2Cc3ccc(F)c(C(=O)O)c3OB2O)c2ccc(O)c(O)c2Cl)C(=O)C1=O` (stereo partly drawn) [Example 238, (3R)-3-(2-((S)-6-(2-aminoethyl)-4-ethyl-2,3-dioxopiperazine-1-carboxamido)-2-(2-chloro-3,4-dihydroxyphenyl)acetamido)-7-fluoro-2-hydroxy-3,4-dihydro-2H-benzo[e][1,2]oxaborinine-8-carboxylic acid], in the assay on P. aeruginosa ATCC 27853 (setting [2]), the MIC lay within 2 to 4 µg/mL.

Turning to `CNCCN1CCN(C(=O)NC(C(=O)N[C@H]2Cc3cccc(C(=O)O)c3OB2O)c2ccc(O)c(O)c2Cl)C(=O)C1=O` (stereo partly drawn) [Example 239, (3R)-3-(2-(2-chloro-3,4-dihydroxyphenyl)-2-(4-(2-(methylamino)ethyl)-2,3-dioxopiperazine-1-carboxamido)acetamido)-2-hydroxy-3,4-dihydro-2H-benzo[e][1,2]oxaborinine-8-carboxylic acid], the MIC with P. aeruginosa ATCC 27853 (setting [2]) lay in the range of 8 to 16 µg/mL.

For `CCN1C[C@H](CO)N(C(=O)NC(C(=O)N[C@H]2Cc3ccc(F)c(C(=O)O)c3OB2O)c2ccc(O)c(O)c2Cl)C(=O)C1=O` (stereo partly drawn) [Example 237, (3R)-3-(2-(2-chloro-3,4-dihydroxyphenyl)-2-((R)-4-ethyl-6-(hydroxymethyl)-2,3-dioxopiperazine-1-carboxamido)acetamido)-7-fluoro-2-hydroxy-3,4-dihydro-2H-benzo[e][1,2]oxaborinine-8-carboxylic acid], in the assay with P. aeruginosa ATCC 27853 (setting [2]), the MIC was in the range of 0.5 to 1 µg/mL.

Consider `NCCCN1CCN(C(=O)N[C@@H](C(=O)N[C@H]2Cc3ccc(F)c(C(=O)O)c3OB2O)c2ccc(O)c(O)c2Cl)C(=O)C1=O` [Example 236, (R)-3-((R)-2-(4-(3-aminopropyl)-2,3-dioxopiperazine-1-carboxamido)-2-(2-chloro-3,4-dihydroxyphenyl)acetamido)-7-fluoro-2-hydroxy-3,4-dihydro-2H-benzo[e][1,2]oxaborinine-8-carboxylic acid], for which the MIC in the assay with P. aeruginosa ATCC 27853 (setting [2]) was 0.5 to 1 µg/mL.

As for `CCNC(=O)NCCN1CCN(C(=O)NC(C(=O)N[C@H]2Cc3cccc(C(=O)O)c3OB2O)c2ccc(O)c(O)c2Cl)C(=O)C1=O` (stereo partly drawn) [Example 235, (3R)-3-(2-(2-chloro-3,4-dihydroxyphenyl)-2-(4-(2-(3-ethylureido)ethyl)-2,3-dioxopiperazine-1-carboxamido)acetamido)-2-hydroxy-3,4-dihydro-2H-benzo[e][1,2]oxaborinine-8-carboxylic acid], in the assay on P. aeruginosa ATCC 27853 (setting [2]), the MIC lay within 8 to 16 µg/mL.

On to `NCCCN1CCN(C(=O)NC(C(=O)N[C@H]2Cc3cccc(C(=O)O)c3OB2O)c2ccc(O)c(O)c2Cl)C(=O)C1=O` (stereo partly drawn) [Example 233, (3R)-3-(2-(4-(3-aminopropyl)-2,3-dioxopiperazine-1-carboxamido)-2-(2-chloro-3,4-dihydroxyphenyl)acetamido)-2-hydroxy-3,4-dihydro-2H-benzo[e][1,2]oxaborinine-8-carboxylic acid], for which the MIC with P. aeruginosa ATCC 27853 (setting [2]) lay in the range of 2 to 4 µg/mL.

As a reminder, the EC50 is the concentration at which the effect is half-maximal. For the compound `CCN1CCN(C(=O)NC(C(=O)N[C@H]2Cc3cccc(C(=O)O)c3OB2O)c2ccc(S(N)(=O)=O)cc2)C(=O)C1=O` (stereo partly drawn) [Example 102, (3R)-3-(2-(4-ethyl-2,3-dioxopiperazine-1-carboxamido)-2-(4-sulfamoylphenyl)acetamido)-2-hydroxy-3,4-dihydro-2H-benzo[e][1,2]oxaborinine-8-carboxylic acid], the EC50 on E. coli PBP2 is greater than 500 µM. For the same compound, the MIC in assay [1] is 8 to 16 mg/L (≈ 13.6 to 27.2 µM).

As for `CCN1C[C@H](CO)N(C(=O)NC(C(=O)N[C@H]2Cc3cccc(C(=O)O)c3OB2O)c2ncc(O)cc2F)C(=O)C1=O` (stereo partly drawn) [Example 234, (3R)-3-(2-((R)-4-ethyl-6-(hydroxymethyl)-2,3-dioxopiperazine-1-carboxamido)-2-(3-fluoro-5-hydroxypyridin-2-yl)acetamido)-2-hydroxy-3,4-dihydro-2H-benzo[e][1,2]oxaborinine-8-carboxylic acid], the MIC in the assay with P. aeruginosa ATCC 27853 (ATCC27853, read-out: MIC P. aeruginosa ATCC 27853) was greater than 128 µg/mL.
